Experimental data: publication PMC9842066, “Implantable device actuated by manual button clicks for noninvasive self‐drug administration” (Bioengineering & Translational Medicine, 2022)

Columns and labels:
[1] = test system: STZ-induced diabetic rats; assay: PD studies on insulin and glucagon delivery (plasma glucose); format: in vivo, Wistar rats; settings: hyperglycemic STZ-induced Type 1 diabetic rats (>400 mg dl^−1); 1-U insulin by SC injection or BCD; n = 4 per group
Procedure: For this experiment, we employed a Type 1 diabetic animal model, streptozotocin (STZ)‐induced diabetic rats.[26], [28] To induce this animal model, Wistar rats were fasted overnight, and then intraperitoneally injected with a STZ solution (60 mg kg^−1) prepared in 0.09 M citrate buffered saline (pH 4.0) to destroy the beta‐cells of the pancreas. Three days after the STZ injection, the plasma glucose level was measured with a glucometer, and the animals with a plasma glucose level > 400 mg dl^−1 were screened for use. Among them, we employed two distinct animal models of hyperglycemia and hypoglycemia, respectively. For a hyperglycemic condition, the animals were used as they were with a blood glucose level of >400 mg dl^−1.[28], [29] For a hypoglycemic condition, the animals were fasted overnight and the ones with a plasma glucose level of <72 mg dl^−1 were screened for use.[30] The hyperglycemic animals were treated with 1‐U insulin by an SC injection or implanted BCD: Inj‐Insulin (n = 4) and BCD‐Insulin (n = 4), respectively. For this, we utilized a commercially available insulin solution (100 U ml^−1; NovoRapid, Novo Nordisk). […] After administration, the plasma glucose level was measured with a glucometer at scheduled times.

[2] = Stability assessment of exenatide and insulin in the BCD
Excerpt: Supplementary Figure 5. […] To obtain the CD spectra, the solution was placed in a 1-mm path length cuvette (Chirascan plus, Applied Photophysics, Surrey, UK) and scanned over range of 200-260 nm.

insulin: commercially available insulin solution (100 U ml^−1; NovoRapid, Novo Nordisk)
Change in plasma glucose level after insulin [1]: decrease
Stability during 4-week period in the BCD ([2]; 4 weeks, Figure S5): well retained
Drop of blood glucose level with stored versus fresh insulin ([2]; insulin stored in BCD at 37 °C for 28 days, injected subcutaneously to diabetic animals, n = 3): similar
Drug content (HPLC) and far-UV CD spectra after incubation in the BCD ([2]; loaded BCDs stored at 37 °C for 28 days, versus fresh drug solution, n = 3, HPLC and CD 200-260 nm): did not vary
